Measurements as given in patent US7326825B2, “Methods of ungulate nuclear transfer” (Roslin Institute (Edinburgh), priority 1995, dated 2008).

Key:
[1] = tested on: ovine oocytes; experiment: Nuclei formation upon activation of reconstructed ovine oocytes matured in vivo; type: cell-based; details: donor cells introduced in the absence of activation
Protocol: Similar observations to those in Example 1 have also been made in ovine oocytes which have been matured in vivo. Freshly ovulated oocytes can be retrieved by flushing from the oviducts of superstimulated ewes 24 hours after prostaglandin treatment. The use of calcium magnesium free PBS/1.0% FCS as a flushing medium prevents oocyte activation. Oocytes can be enucleated in calcium free medium and donor cells introduced as above in the absence of activation. No organised spindle is observed, multiple nuclei are formed upon subsequent activation and this may be suppressed by nocodazole treatment.

[2] = tested on: enucleated oocytes fused to primary bovine fibroblasts; experiment: Pronuclear formation in enucleated oocytes fused to primary bovine fibroblasts and subsequently activated; type: cell-based; parameters: percentage of activated oocytes containing 1 PN / percentage of activated oocytes containing 2 PN / percentage of activated oocytes containing 3 PN / percentage of activated oocytes containing 4 PN / percentage of activated oocytes containing >4 PN: concentration or dose not given beside the values
[3] = nocodazole 1 hour prior to and 6 hours following activation, fused 24 hpm, activated 42 hpm, scored 12 hours post activation

COC(=O)Nc1nc2ccc(C(=O)c3cccs3)cc2[nH]1 [nocodazole]
formation of multiple nuclei upon subsequent activation [1]: suppressed | formation of micronuclei ([2]; incubation of activated oocytes for 5 hours, 1 hour prior to and following the activation stimulus): prevents the formation of micronuclei | percentage of activated oocytes containing 1 PN [2, 3]: 100% | percentage of activated oocytes containing 2 PN [2, 3]: 0% | percentage of activated oocytes containing 3 PN [2, 3]: 0% | percentage of activated oocytes containing 4 PN [2, 3]: 0% | percentage of activated oocytes containing >4 PN [2, 3]: 0%
